Measurements as given in US20250313533A1, “QUINOLINE CARBOXYLIC ACID ESTER COMPOUND AND PREPARATION METHOD AND USE THEREOF” (priority 2019, published 2025).

Legend:
cucumber seedlings = experiment: Safety for plant growth after application; type: in vivo; conditions: dosage 200 ppm
Procedure, shortened: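 Read-outs are chlorophyll content, leaf area and the rate of increase in plant height, all measured on cucumber seedlings kept in pots indoors after application.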

[1] = tested on: pathogenic bacteria causing bacterial angular leaf spot in cucumbers; experiment: In vitro bactericidal activity, bacterial angular leaf spot in cucumbers; type: cell-based, pseudomonas; conditions: read-out: inhibitory rate; for inhibition at 1 ppm: dosage 1 ppm; for inhibition at 5 ppm: dosage 5 ppm
[2] = tested on: pathogenic bacteria causing stem rot in sweet potatoes; experiment: In vitro bactericidal activity, stem rot in sweet potatoes; type: cell-based, dikia; conditions: read-out: inhibitory rate; for inhibition at 1 ppm: dosage 1 ppm; for inhibition at 5 ppm: dosage 5 ppm
[3] = tested on: indoor potted cucumber seedlings; experiment: Effect of improving growth and development of crops; type: in vivo; set-up: Rate of growth rate increase (%): concentration or dose not given beside the values; conditions: versus blank control; for Rate of chlorophyll content increase (%) / Rate of leaf area increase (%): 14 days after application; for Rate of growth rate increase (%): plant height 14 days after application; for Rate of leaf area increase (%): second leaf
Procedure: Taking indoor potted cucumber seedlings as an example, the influence of the compound disclosed herein on growth rate of plant height, chlorophyll content, leaf area, etc. of crops was mainly evaluated.
The plant heights of plants before application and 14 days after the application were measured.
The growth rates were calculated according to formula (1)
The rates of the growth rate increase (%) were calculated according to formula (2)
The longitudinal and transverse diameters (i.e., leaf length and leaf width, respectively, wherein the leaf length is the distance from the base to the tip of a leaf, and leaf width is the measured value of the upper shoulder width of the leaf) of the second leaf of plants before application and 14 days after the application were measured.
The leaf areas were calculated according to formula (3)
The leaf area increases were calculated according to formula (4)
The rates of the leaf area increases were calculated according to formula (5)
The chlorophyll contents of leaves were measured by using a chlorophyll measuring instrument (model: SPAD-520 Plus).
The chlorophyll content increases were calculated according to formula (6)
The rates of the chlorophyll content increases were calculated according to formula (7)

[4] = tested on: pathogenic bacteria causing bacterial wilt in cassava; experiment: organism not typed; type: cell-based; conditions: read-out: inhibitory rate
[5] = tested on: pathogenic bacteria causing fire blight in pears; experiment: In vitro bactericidal activity, fire blight in pears; type: cell-based, erwinia; conditions: Erwinia, read-out: inhibitory rate; for inhibition at 1 ppm: dosage 1 ppm; for inhibition at 5 ppm: dosage 5 ppm
[6] = tested on: pathogenic bacteria causing fruit blotch in watermelons; experiment: In vitro bactericidal activity, fruit blotch in watermelons; type: cell-based, acidovorax; conditions: read-out: inhibitory rate; for inhibition at 1 ppm: dosage 1 ppm; for inhibition at 5 ppm: dosage 5 ppm
[7] = tested on: pathogenic bacteria causing black shank in potatoes; experiment: In vitro bactericidal activity, black shank in potatoes; type: cell-based; conditions: read-out: inhibitory rate; for inhibition at 1 ppm: dosage 1 ppm; for inhibition at 5 ppm: dosage 5 ppm
[8] = tested on: pathogenic bacteria causing bacterial wilt in tobacco; experiment: whole plant or invertebrate; type: cell-based, ralstonia; conditions: read-out: inhibitory rate
[9] = tested on: soft rot in Chinese cabbages; experiment: whole plant or invertebrate; conditions: 48 h, read-out: efficacy against soft rot in Chinese cabbages
[10] = tested on: stem rot in sweet potatoes; experiment: whole plant or invertebrate; conditions: read-out: efficacy against stem rot in sweet potatoes
black shank in potatoes = experiment: Living crops in vivo protective activity, potatoes (root irrigation); conditions: Solanum tuberosum, read-out: efficacy against black shank in potatoes; for pest or weed control at 5 ppm: dosage 5 ppm; for pest or weed control at 10 ppm: dosage 10 ppm
Procedure: Root irrigation was carried out on the potatoes for tests according to the designed concentration of the agents. The dosage for each plant was 200 mL and was kept consistent (also for the control). The black shank bacteria were inoculated on the second day after the application. The results were investigated according to the disease condition.

[11] = tested on: pathogenic bacteria causing black rot in Chinese cabbages; experiment: In vitro bactericidal activity, black rot in Chinese cabbages; type: cell-based, xanthomonas; conditions: Xanthomonas, read-out: inhibitory rate; for inhibition at 1 ppm: dosage 1 ppm; for inhibition at 5 ppm: dosage 5 ppm
[12] = tested on: bacterial wilt in tobacco; experiment: whole plant or invertebrate; conditions: Nicotiana tabacum, read-out: efficacy against bacterial wilt in tobacco
[13] = tested on: pathogenic bacteria causing bacterial blight in rice; experiment: whole plant or invertebrate; type: cell-based, xanthomonas; conditions: read-out: inhibitory rate
bacterial blight in rice = experiment: whole plant or invertebrate; conditions: Oryza sativa, read-out: efficacy against bacterial blight in rice
[14] = tested on: fruit blotch in watermelons; experiment: whole plant or invertebrate; conditions: read-out: efficacy against fruit blotch in watermelons

| SMILES | safety for plant growth (discoloration, necrosis, wilt, malformation) (cucumber seedlings) | inhibition at 1 ppm [1] | inhibition at 5 ppm [1] | inhibition at 1 ppm [2] | inhibition at 5 ppm [2] | Rate of chlorophyll content increase (%) [3] | Rate of growth rate increase (%) [3] | Rate of leaf area increase (%) [3] | inhibition at 1 ppm [4] | inhibition at 5 ppm [4] | inhibition at 1 ppm [5] | inhibition at 5 ppm [5] | inhibition at 1 ppm [6] | inhibition at 5 ppm [6] | inhibition at 1 ppm [7] | inhibition at 5 ppm [7] | inhibition at 1 ppm [8] | inhibition at 5 ppm [8] | pest or weed control at 5 ppm [9] | pest or weed control at 10 ppm [9] | other results |
| --- | --- | --- | --- | --- | --- | --- | --- | --- | --- | --- | --- | --- | --- | --- | --- | --- | --- | --- | --- | --- | --- |
| COc1cc2c(cc1F)c(=O)c(C(=O)OCCO)cn2C1CC1 [Compound 264] | safe for plant growth | ≥ 90% | ≥ 90% | ≥ 90% | ≥ 90% | 12% | 9% | 11% | ≥ 90% | ≥ 90% | ≥ 90% | ≥ 90% | ≥ 90% | ≥ 90% | ≥ 90% | ≥ 90% | ≥ 90% | ≥ 90% | ≥ 90% | ≥ 90% | pest or weed control at 5 ppm [10]: ≥ 90%; pest or weed control at 10 ppm [10]: ≥ 90%; pest or weed control at 5 ppm (black shank in potatoes): ≥ 90%; pest or weed control at 10 ppm (black shank in potatoes): ≥ 90%; inhibition at 1 ppm [11]: ≥ 90%; inhibition at 5 ppm [11]: ≥ 90%; pest or weed control at 5 ppm [12]: ≥ 90%; pest or weed control at 10 ppm [12]: ≥ 90%; inhibition at 1 ppm [13]: ≥ 90%; inhibition at 5 ppm [13]: ≥ 90%; pest or weed control at 5 ppm (bacterial blight in rice): ≥ 90%; pest or weed control at 10 ppm (bacterial blight in rice): ≥ 90%; pest or weed control at 5 ppm [14]: ≥ 90%; pest or weed control at 10 ppm [14]: ≥ 90% |
| CCOc1cc2c(cc1F)c(=O)c(C(=O)OCCO)cn2C1CC1 [Compound 265] | safe for plant growth | ≥ 90% | ≥ 90% | ≥ 90% | ≥ 90% | 13% | 12% | 15% | ≥ 90% | ≥ 90% | ≥ 90% | ≥ 90% | ≥ 90% | ≥ 90% | ≥ 90% | ≥ 90% | ≥ 90% | ≥ 90% | ≥ 90% | ≥ 90% | pest or weed control at 5 ppm [10]: ≥ 90%; pest or weed control at 10 ppm [10]: ≥ 90%; pest or weed control at 5 ppm (black shank in potatoes): ≥ 90%; pest or weed control at 10 ppm (black shank in potatoes): ≥ 90%; inhibition at 1 ppm [11]: ≥ 90%; inhibition at 5 ppm [11]: ≥ 90%; pest or weed control at 5 ppm [12]: ≥ 90%; pest or weed control at 10 ppm [12]: ≥ 90%; inhibition at 1 ppm [13]: ≥ 90%; inhibition at 5 ppm [13]: ≥ 90%; pest or weed control at 5 ppm (bacterial blight in rice): ≥ 90%; pest or weed control at 10 ppm (bacterial blight in rice): ≥ 90%; pest or weed control at 5 ppm [14]: ≥ 90%; pest or weed control at 10 ppm [14]: ≥ 90% |
| CC(C)(C)Oc1cc2c(cc1F)c(=O)c(C(=O)OCCO)cn2C1CC1 [Compound 270] | safe for plant growth | ≥ 90% | ≥ 90% | ≥ 90% | ≥ 90% | 10% | 9% | 12% | ≥ 90% | ≥ 90% | ≥ 90% | ≥ 90% | ≥ 90% | ≥ 90% | ≥ 90% | ≥ 90% | ≥ 90% | ≥ 90% | ≥ 90% | ≥ 90% | pest or weed control at 5 ppm [10]: ≥ 90%; pest or weed control at 10 ppm [10]: ≥ 90%; pest or weed control at 5 ppm (black shank in potatoes): ≥ 80%; pest or weed control at 10 ppm (black shank in potatoes): ≥ 90%; inhibition at 1 ppm [11]: ≥ 90%; inhibition at 5 ppm [11]: ≥ 90%; pest or weed control at 5 ppm [12]: ≥ 90%; pest or weed control at 10 ppm [12]: ≥ 90%; inhibition at 1 ppm [13]: ≥ 90%; inhibition at 5 ppm [13]: ≥ 90%; pest or weed control at 5 ppm (bacterial blight in rice): ≥ 90%; pest or weed control at 10 ppm (bacterial blight in rice): ≥ 90%; pest or weed control at 5 ppm [14]: ≥ 90%; pest or weed control at 10 ppm [14]: ≥ 90% |
